The numbers were not newly measured in patent US6458389B1 (priority 1997, dated 2002), which cites them from elsewhere.

Molecules are shown by their SMILES. Where two headings read alike, the source gives them in different places.

One data set concerns mice. The following applies: mice treated orally, toxic dose of 70 mg/kg.
Another data set relates to rats. The conditions noted are these: rat, in vivo, iv.

As to `N.N.[Cl][Pt][Cl]` [cisplatin], the “Electron microscope analysis of tissues (kidneys)” value is listed as “only slight changes in the kidneys” (48 hours after oral administration) and “symptoms of nephrotoxicity are observable” (intravenous administration). For the same compound, in the data set with mice, the “Histopathological change in the kidneys” value is listed as “No histopathological change in the kidneys”. Also, the “Urea concentrations in the blood, multiplication factor” value with rats is 14.
